Results published in PubChem BioAssay AID2060900 (Molecular Pharmacology Branch, DTP, NCI, 2025).

System: 521955-158-R2-J5-PDC complex spheroids, viability
Test: Anticancer human tumor 521955-158-R2-J5-PDC patient-derived pancreatic carcinoma cell line growth inhibition [RAS]
Conditions: for IC50: curve of first compound; for viability, T/C: stronger effect = lower value
Excerpt: RAS pathway inhibitors in Combinations in Complex Spheroids
A high-throughput screen of multi-cell type tumor spheroids was designed to identify active combinations of RAS pathway inhibitors and targeted small molecules. Complex spheroids include a stromal component modeled by human endothelial cells (HUVEC) and fibroblasts modeled by human mesenchymal stem cells (MSCs). The concentration ranges selected for each drug and investigational agent were based upon clinically achievable concentrations if the clinical Cmax of the agent was known.
Compounds. The drugs and investigational agents: abemaciclib (NSC768073), cobimetinib (NSC768068), divarasib (GDC6063, NSC841802), docetaxel (NSC628503), GDC-1971 (RLY-1971, NSC841576), gemcitabine (NSC613327), inavolisib (NSC800729), ipatasertib (NSC767898), KB-0742 (NSC834161), MRTX-1133 (NSC836407), osimertinib (NSC779217), RMC-4630 (NSC839698), RMC-6236 (NSC851965), RMC-6291 (NSC852671), Ro-3306 (NSC812927), sapanisertib (NSC764658), SN-38 (NSC673596), staurosporine (NSC755774), SY5609 (NSC837396), and tovorafenib (DAY101, NSC766906), were obtained from the National Cancer Institute (NCI) Developmental Therapeutics Program Chemical Repository. The FDA-approved anticancer drug set is available from the NCI Developmental Therapeutics Program. […] The stock solutions were prepared in dimethyl sulfoxide (DMSO, Sigma-Aldrich, St. Louis, MO, cat. D2650) at 800-fold the tested concentration and stored at -70 degrees C prior to their use. All drugs and investigational agents were tested over a range starting from a high concentration at or near the clinical Cmax and decreasing in half-log increments. If the clinical Cmax for an agent had not been determined, the highest concentration tested was 10 microM.
Cell Culture. All cells were maintained in an incubator at 37 degrees C and 5% CO2 with 95% humidity. The PDC lines were cultured according to standard operating procedures established by the NCI PDMR. All PDCs were thawed and cultured in Matrigel-coated flasks prepared with a working solution of 1X Ham's F-12 nutrient mix, without supplementation (Invitrogen, Waltham, MA, cat. 11765054), 100 U/mL penicillin-streptomycin (Invitrogen, cat. 15140122), and 2.5% Matrigel (Corning Inc., Corning, NY, cat. 354248) for the first three passages. The 362531-283-R-J2-PDC and 782815-120-R-J1-PDC lines were cultured in 6C/Colon 1B media, which includes advanced DMEM/F-12 (Thermo Fisher Scientific, cat. 12634028), 10 mM HEPES (Thermo Fisher Scientific, cat. 15630080), 1X GlutaMAX supplement (Thermo Fisher Scientific, cat. 35050061), 0.1 mg/mL primocin (InvivoGen, San Diego, CA, cat. ant-pm-2), 10% defined fetal bovine serum, heat inactivated (HyClone Laboratories Inc., Logan, UT, cat. SH30070.03HI), 50% L-WRN conditioned media (ATCC, cat. CRL-3276), 1.25 mM N-Acetyl-L-cysteine (Sigma-Aldrich, cat. A9165), 10 mM nicotinamide (Sigma-Aldrich, cat. N0636), 1X B-27 supplement (Thermo Fisher Scientific, cat. 17504044), 1X N-2 supplement (Thermo Fisher Scientific, cat. 17502048), 50 ng/mL human EGF (Thermo Fisher Scientific, cat. PHG0311), and 10 microM Y-27632 dihydrochloride (Tocris Bioscience, cat. 1254). The K12877-001-R-J1-PDC line was cultured in 6I media, which includes all 6C/Colon 1B media plus 10 ng/mL human FGF-10 (PeproTech, cat. 100-26), 1 ng/mL human FGF-2 (PeproTech, cat. 100-18B), 1 µM prostaglandin E2 (Tocris Bioscience, cat. 2296), […] hydrocortisone (Sigma-Aldrich, cat. H4001), and […] bovine insulin (Sigma-Aldrich, cat. I6634). The K86415-001-R-J1-PDC line was cultured in 6D media, which includes all 6C/Colon 1B media components minus the L-WRN conditioned media. The 485176-168-R4-J1-PDC was cultured in PANC media, which includes all 6C/Colon 1B media plus 100 ng/mL human FGF-10 (PeproTech, cat. 100-26), 500 nM SB-431542 (Selleckchem, cat. S1067), and 10 nM gastrin (Tocris Bioscience, cat. 3006). […]

[1] = second compound 0.0316 µM, first compound 0.0316 µM
[2] = second compound 0.0316 µM, first compound 0.1 µM
[3] = second compound 0.0316 µM, first compound 0.316 µM
[4] = second compound 0.0316 µM, first compound 1 µM
[5] = second compound 0.0316 µM, first compound 3.16 µM
[6] = second compound 0.0316 µM, first compound 10 µM
[7] = second compound 0.1 µM, first compound 0.0316 µM
[8] = second compound 0.1 µM, first compound 0.1 µM
[9] = second compound 0.1 µM, first compound 0.316 µM
[10] = second compound 0.1 µM, first compound 1 µM
[11] = second compound 0.1 µM, first compound 3.16 µM
[12] = second compound 0.1 µM, first compound 10 µM
[13] = second compound 0.316 µM, first compound 0.0316 µM
[14] = second compound 0.316 µM, first compound 0.1 µM
[15] = second compound 0.316 µM, first compound 0.316 µM
[16] = second compound 0.316 µM, first compound 1 µM
[17] = second compound 0.316 µM, first compound 3.16 µM
[18] = second compound 0.316 µM, first compound 10 µM
[19] = second compound 1 µM, first compound 0.0316 µM
[20] = second compound 1 µM, first compound 0.1 µM
[21] = second compound 1 µM, first compound 0.316 µM
[22] = second compound 1 µM, first compound 1 µM
[23] = second compound 1 µM, first compound 3.16 µM
[24] = second compound 1 µM, first compound 10 µM
[25] = second compound 3.16 µM, first compound 0.0316 µM
[26] = second compound 3.16 µM, first compound 0.1 µM
[27] = second compound 3.16 µM, first compound 0.316 µM
[28] = second compound 3.16 µM, first compound 1 µM
[29] = second compound 3.16 µM, first compound 3.16 µM
[30] = second compound 3.16 µM, first compound 10 µM
[31] = second compound 10 µM, first compound 0.0316 µM
[32] = second compound 10 µM, first compound 0.1 µM
[33] = second compound 10 µM, first compound 0.316 µM
[34] = second compound 10 µM, first compound 1 µM
[35] = second compound 10 µM, first compound 3.16 µM
[36] = second compound 10 µM, first compound 10 µM
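Also: compound exposure lasted seven days before the viability read.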
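For viability, T/C in this document: spheroids also contain HUVEC endothelial cells and mesenchymal stem cells as stroma.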

CC(C)NCC(C(=O)N1CCN(c2ncnc3c2C(C)CC3O)CC1)c1ccc(Cl)cc1 (stereo unspecified) + C#Cc1c(F)ccc2cc(O)cc(-c3ncc4c(N5CC6CCC(C5)N6)nc(OCC56CCCN5CC(F)C6)nc4c3F)c12
IC50 (second compound 0.0316 µM): 49.1 nM
IC50 (second compound 0.1 µM): < 31.6 nM
IC50 (second compound 0.316 µM): < 31.6 nM
IC50 (second compound 1 µM): < 31.6 nM
IC50 (second compound 3.16 µM): < 31.6 nM
IC50 (second compound 10 µM): < 31.6 nM
viability, T/C [1]: 55.1%
viability, T/C [2]: 40%
viability, T/C [3]: 36.9%
viability, T/C [4]: 15.6%
viability, T/C [5]: 10.7%
viability, T/C [6]: 10.4%
viability, T/C [7]: 45.7%
viability, T/C [8]: 54.2%
viability, T/C [9]: 26.8%
viability, T/C [10]: 13.4%
viability, T/C [11]: 8.3%
viability, T/C [12]: 8.31%
viability, T/C [13]: 43.6%
viability, T/C [14]: 43.2%
viability, T/C [15]: 29.1%
viability, T/C [16]: 11.7%
viability, T/C [17]: 7.83%
viability, T/C [18]: 6.31%
viability, T/C [19]: 43.8%
viability, T/C [20]: 45.2%
viability, T/C [21]: 26.9%
viability, T/C [22]: 12.7%
viability, T/C [23]: 6.2%
viability, T/C [24]: 4.69%
viability, T/C [25]: 43.4%
viability, T/C [26]: 38.2%
viability, T/C [27]: 22%
viability, T/C [28]: 8.28%
viability, T/C [29]: 5.14%
viability, T/C [30]: 3.32%
viability, T/C [31]: 32.3%
viability, T/C [32]: 27%
viability, T/C [33]: 15.1%
viability, T/C [34]: 7.44%
viability, T/C [35]: 3.67%
viability, T/C [36]: 1.98%

CC(Nc1ccc2c(c1)OCCn1cc(N3C(=O)OCC3C(F)F)nc1-2)C(N)=O (stereo unspecified) + C#Cc1c(F)ccc2cc(O)cc(-c3ncc4c(N5CC6CCC(C5)N6)nc(OCC56CCCN5CC(F)C6)nc4c3F)c12
IC50 (second compound 0.0316 µM): 55.4 nM
IC50 (second compound 0.1 µM): < 31.6 nM
IC50 (second compound 0.316 µM): < 31.6 nM
IC50 (second compound 1 µM): < 31.6 nM
IC50 (second compound 3.16 µM): < 31.6 nM
IC50 (second compound 10 µM): < 31.6 nM
viability, T/C [1]: 60.7%
viability, T/C [2]: 37.6%
viability, T/C [3]: 28.7%
viability, T/C [4]: 17.1%
viability, T/C [5]: 12.9%
viability, T/C [6]: 11.9%
viability, T/C [7]: 46.9%
viability, T/C [8]: 31.9%
viability, T/C [9]: 24.3%
viability, T/C [10]: 16%
viability, T/C [11]: 13.6%
viability, T/C [12]: 11.3%
viability, T/C [13]: 48.1%
viability, T/C [14]: 35.1%
viability, T/C [15]: 18.7%
viability, T/C [16]: 16%
viability, T/C [17]: 10.8%
viability, T/C [18]: 10.2%
viability, T/C [19]: 36%
viability, T/C [20]: 28.7%
viability, T/C [21]: 18.2%
viability, T/C [22]: 16.7%
viability, T/C [23]: 11.7%
viability, T/C [24]: 8.56%
viability, T/C [25]: 32.7%
viability, T/C [26]: 25.3%
viability, T/C [27]: 16.3%
viability, T/C [28]: 11%
viability, T/C [29]: 8.73%
viability, T/C [30]: 6.29%
viability, T/C [31]: 26.5%
viability, T/C [32]: 16.8%
viability, T/C [33]: 8.86%
viability, T/C [34]: 4.7%
viability, T/C [35]: 2.91%
viability, T/C [36]: 1.54%

O=C(c1ccc(F)c(F)c1Nc1ccc(I)cc1F)N1CC(O)([C@@H]2CCCCN2)C1 + C#Cc1c(F)ccc2cc(O)cc(-c3ncc4c(N5CC6CCC(C5)N6)nc(OCC56CCCN5CC(F)C6)nc4c3F)c12
IC50 (second compound 0.0316 µM): 13.9 nM
IC50 (second compound 0.1 µM): 9.71 nM
IC50 (second compound 0.316 µM): 5.09 nM
IC50 (second compound 1 µM): < 3.16 nM
IC50 (second compound 3.16 µM): < 3.16 nM
IC50 (second compound 10 µM): < 3.16 nM
viability, T/C (second compound 0.0316 µM, first compound 0.00316 µM): 57.3%
viability, T/C (second compound 0.0316 µM, first compound 0.01 µM): 53%
viability, T/C [1]: 43.3%
viability, T/C [2]: 35.2%
viability, T/C [3]: 23.4%
viability, T/C [4]: 15.4%
viability, T/C (second compound 0.1 µM, first compound 0.00316 µM): 54.5%
viability, T/C (second compound 0.1 µM, first compound 0.01 µM): 54.2%
viability, T/C [7]: 34.3%
viability, T/C [8]: 29.3%
viability, T/C [9]: 20.1%
viability, T/C [10]: 15%
viability, T/C (second compound 0.316 µM, first compound 0.00316 µM): 51.5%
viability, T/C (second compound 0.316 µM, first compound 0.01 µM): 47.6%
viability, T/C [13]: 38.4%
viability, T/C [14]: 36%
viability, T/C [15]: 19.1%
viability, T/C [16]: 17%
viability, T/C (second compound 1 µM, first compound 0.00316 µM): 44.6%
viability, T/C (second compound 1 µM, first compound 0.01 µM): 43%
viability, T/C [19]: 38.6%
viability, T/C [20]: 23.2%
viability, T/C [21]: 14.4%
viability, T/C [22]: 12.4%
viability, T/C (second compound 3.16 µM, first compound 0.00316 µM): 43.9%
viability, T/C (second compound 3.16 µM, first compound 0.01 µM): 41.9%
viability, T/C [25]: 27%
viability, T/C [26]: 18.4%
viability, T/C [27]: 10.9%
viability, T/C [28]: 7.26%
viability, T/C (second compound 10 µM, first compound 0.00316 µM): 41.3%
viability, T/C (second compound 10 µM, first compound 0.01 µM): 29.1%
viability, T/C [31]: 27.2%
viability, T/C [32]: 15.3%
viability, T/C [33]: 2.76%
viability, T/C [34]: 2.89%
